Patent US10183015B2, “Heterocyclic compounds and methods of use” (Medivation Technologies LLC, priority 2015, dated 2019)
“And” between values parts separate entries of the source, which are not always exact repeats. Identical values can stand only once.

Columns and labels:
[1] = system: 60% high fat Paigen diet induced NASH mouse model; test: Short-term Paigen-diet NASH mouse model: liver Oil Red O staining; assay type: in vivo; settings: 21 days
Procedure: (§1) To investigate whether Compound #37 prevents the development of pathology associated with NASH and steatosis in an acute exploratory disease model, a study was conducted using a diet-induced acute liver steatosis model in mice. As described below, in this study, C57BL/6J mice were initiated on the Paigen diet and simultaneously treated with Compound #37 (5, 20, and 40 mg/kg/day) or vehicle control (20% HPβCD 10 mL/kg/day) by oral gavage for 21 days.
(§2) After acclimation, 8-week old male C57Bl/6J mice (Charles River) weighing about 25 g were randomized in 4 groups according their body weight and treated once daily around noon by oral gavage with vehicle, or Compound #37 at various for 21 days as follows: Group 1: vehicle-20% (2-hydroxypropyl)-β-cyclodextrin (HP-β-CD) (n=10); Group 2: Compound #37, 5 mg/kg (n=10) Group 3: Compound #37, 20 mg/kg (n=10) Group 4: Compound #37, 40 mg/kg (n=10). During the treatment period, body weight and food intake (measured over 24h) were measured 3 times per week and once a week, respectively. During the acclimation, all mice were fed a standard diet (Special Diets Services RM1 (E), product no. 801492) and tap water ad libitum. After the acclimation period, mice were fed until the end of the experiment with a 60% high fat Paigen diet (60 kcal % fat, 1.25% cholesterol, and 0.5% cholate; D11061901, Research Diet) and tap water ad libitum.
One 0.5 cm^3 piece of liver was frozen in OCT in isopentane and stored at −80° C. for neutral lipid coloration with quantification to evaluate accumulation of neutral lipids in the liver. One section (thickness 5-7 μm) per block was deposited on superfrost+slides for Red Oil staining. Red Oil-stained slides were digitalized at ×20 with the Nanozoomer 2.0 HT. Red Oil labeling was quantified (surface, density): the stained slides were analyzed using an image. All the samples were analyzed within the same range of labeling intensity (0-130), allowing comparison between animals. The intensity scale ranged from 0 to 255 grey levels, in which 0 is the value of a black pixel, and 255 is the value of a white pixel. The staining intensity was calculated as the mean intensity of each pixel composing the labeling signal. For each slide, the percentage (%) of labeling was also calculated: %=(Surface of labeling*100)/section area.

SCD1 = test: Short-term Paigen-diet NASH mouse model: hepatic SCD1 gene expression (RT-qPCR); assay type: in vivo; settings: SCD1 relative expression to vehicle group, 21 days
Procedure: as §1, §2
(§3) Gene expression analysis. Hepatic expression levels of genes involved in lipid metabolism (FAS, SREBP1, ACC1, SCD1), cholesterol metabolism (HMG-CoAR, LDLR), SREBP proteolysis (SCAP, INSIG1), ER stress (PERK), oxidative stress (NRF2), inflammation (MCP-1), and fibrosis (collagen 1α1) were quantified by RTqPCR. Expression level was normalized to 18S gene expression and relative expression to vehicle group was calculated with the […] method.

SREBP1C = test: Short-term Paigen-diet NASH mouse model: hepatic SREBP1C gene expression (RT-qPCR); assay type: in vivo; settings: liver, 21 days; for DDct: SREBP1C Dct relative to vehicle mean; for Dct: SREBP1C minus 18S; for 2DDct: SREBP1C relative expression to vehicle group, normalized to 18S; for SREBP1C: raw RT-qPCR value
Procedure: as §1, §2, §3

ob/ob mice = test: ob/ob mice: liver triglycerides, fatty acids, total cholesterol; assay type: in vivo, mouse; settings: 8 weeks; for liver fatty acids / liver total cholesterol / liver triglycerides: ob/ob mice
Procedure: (§4) Groups of mice were either untreated (group 1) or treated for 8 weeks with vehicle (group 2), or with Compound #37 at 5 mg/kg (group 3), 10 mg/kg (group 4), or 20 mg/kg (group 5). Treatment was daily by oral gavage in vehicle (20% HPβCD). Values are presented as mean±standard error of the mean (sem). A t test was performed to compare the untreated group and the vehicle group. Then Compound #37-treated groups were compared to the vehicle-treated group with a 1-way ANOVA+Dunnett's post-test. […] For each test, a p<0.05 was considered significant. Of note, animal #39, group 1 was excluded from the statistical analysis, due to low values for all parameters measured. Some other values were considered as out-liners and excluded from the statistical analysis when the value was far below the mean minus 2 SD. Excluded values are marked with an asterisk in Tables 21-23.

[2] = ob/ob mice: tolerability, weight gain and food intake; assay type: in vivo; settings: over 8 weeks, all treatment groups
Procedure: as §4
These plasma lipid results are consistent with SCAP/SREBP pathway inhibition seen in tissue-specific SCAP knockout mice (Horton et al, 2002) and with inhibition of SREBP in vivo (Moon et al, 2012).

[3] = 28-day repeat-dose toxicity study in healthy rats: plasma exposure (AUC24h); assay type: in vivo, rat; settings: day 28
Procedure: In the repeat-dose toxicity study in rats (Compound #37P018), Compound #37 was given at 0 (vehicle control), 50, 100/75, and 200/150 mg/kg/day for 28 days; some animals from each dose group continued into a 28-day recovery period. After 28 days of treatment, liver neutral lipids from treated and control animals were analyzed with Oil Red O staining.
The more pronounced effects in female rats compared with male rats is consistent with the observed higher plasma exposure (>4-fold higher area under the curve over 24 hours [AUC24h]) at day 28 in females compared with males. Evidence of an effect of Compound #37 on leptin concentrations was also observed in female rats in a dose-dependent manner. As animals gain weight, leptin concentrations naturally increase due to its origin from adipose tissue. Female rats treated with Compound #37 had lower concentrations of leptin compared with the vehicle control group during the treatment period (day 4 and day 28), which was not observed after treatment termination and recovery (day 56) (FIG. 7).

[4] = Compound #37 5 mg/kg, group mean, n=10
[5] = Compound #37 5 mg/kg, individual animals, 5 mg/kg
[6] = Compound #37 20 mg/kg, group mean, n=6
[7] = Compound #37 20 mg/kg, individual animals, 20 mg/kg
[8] = 5 mg/kg daily oral gavage, group mean
[9] = 5 mg/kg daily oral gavage, individual animal values, 5 mg/kg
[10] = 10 mg/kg daily oral gavage, group mean
[11] = 10 mg/kg daily oral gavage, individual animal values, 10 mg/kg
[12] = 20 mg/kg daily oral gavage, group mean
[13] = 20 mg/kg daily oral gavage, individual animal values (* = excluded from statistical analysis), 20 mg/kg

With CC(C)Cc1cc(-c2nc(-c3ccc(NS(=O)(=O)C(F)(F)F)cc3Cl)cs2)ccn1 [Compound 37, N-(3-chloro-4-(2-(2-isobutylpyridin-4-yl)thiazol-4-yl)phenyl)-1,1,1-trifluoromethanesulfonamide] the “Liver O red Oil staining, % labeling” value ([1]; 5 mg/kg p.o. daily, group mean) was 1.50%, the “Liver O red Oil staining, % labeling” value ([1]; 5 mg/kg p.o. daily, individual animals) was 2.08% and 2.02% and 1.19% and 2.18% and 1.64% and 1.09% and 1.16% and 1.50% and 0.70% and 1.39% and the “Liver O red Oil staining, % labeling” value ([1]; 20 mg/kg p.o. daily, group mean) was 0.93%. For the same compound, the “Liver O red Oil staining, % labeling” value ([1]; 20 mg/kg p.o. daily, individual animals) was 1.53% and 0.81% and 0.29% and 1.11% and 0.92% (2×), the 2DDct (SCD1; 5 mg/kg, group mean) was 1.05 and the 2DDct (SCD1; 5 mg/kg, individual animals, 5 mg/kg) was 2.96 and 0.99 and 0.66 and 2.02 and 0.77 and 0.22 and 0.93 and 0.76 and 0.6 and 0.59. For the same compound, the 2DDct (SCD1; 20 mg/kg, group mean) was 1.18, the 2DDct (SCD1; 20 mg/kg, individual animals, 20 mg/kg) was 0.98 and 0.47 (2×) and 0.88 and 2.28 and 2 and the DDct (SREBP1C; [4]) was 0.26. The DDct (SREBP1C; [5]) was −0.21 and 0.9 and 0.06 and −0.98 and 1.46 and 1.52 and −0.09 and −0.27 and 0.17 and 0.02, the DDct (SREBP1C; [6]) was −0.13 and the DDct (SREBP1C; [7]) was 0.5 and 0.38 and 0.11 and −1.36 and 0.66 and −1.08. The Dct (SREBP1C; [4]) was 14, the Dct (SREBP1C; [5]) was 13.57 and 14.68 and 13.84 and 12.8 and 15.24 and 15.3 and 13.69 and 13.51 and 13.95 and 13.8 and the Dct (SREBP1C; [6]) was 13.6. The Dct (SREBP1C; [7]) was 14.28 and 14.16 and 13.89 and 12.42 and 14.44 and 12.7, the 2DDct (SREBP1C; [4]) was 0.95 and the 2DDct (SREBP1C; [5]) was 1.16 and 0.54 and 0.96 and 1.98 and 0.36 and 0.35 and 1.07 and 1.21 and 0.89 and 0.99. The 2DDct (SREBP1C; [6]) was 1.29, the 2DDct (SREBP1C; [7]) was 0.71 and 0.77 and 0.93 and 2.57 and 0.63 and 2.12 and the SREBP1C (SREBP1C; [4]) was 26.3. The SREBP1C (SREBP1C; [5]) was 27.03 and 27.79 and 25.45 and 26.15 and 27.27 and 28.65 and 25.29 and 25.3 and 25.09 and 24.92, the SREBP1C (SREBP1C; [6]) was 25.8 and the SREBP1C (SREBP1C; [7]) was 27.19 and 26.45 and 26.09 and 25.45 and 25.93 and 23.96. For the same compound, the hepatic cholesterol concentrations (ob/ob mice) was “no effect”, the liver fatty acids (ob/ob mice; [8]) was 35.9 nmol/mg liver and the liver total cholesterol (ob/ob mice; [8]) was 12.5 μg/mg liver. The liver triglycerides (ob/ob mice; [8]) was 80.3 μg/mg liver, the liver fatty acids (ob/ob mice; [9]) was 21.39 nmol/mg liver and 38.65 nmol/mg liver and 43.56 nmol/mg liver and 43.68 nmol/mg liver and 42.30 nmol/mg liver and 26.81 nmol/mg liver and 31.47 nmol/mg liver and 34.22 nmol/mg liver and 40.04 nmol/mg liver and 36.50 nmol/mg liver and the liver total cholesterol (ob/ob mice; [9]) was 9.57 μg/mg liver and 13.21 μg/mg liver and 16.08 μg/mg liver and 15.08 μg/mg liver and 14.41 μg/mg liver and 9.18 μg/mg liver and 10.40 μg/mg liver and 12.19 μg/mg liver and 13.20 μg/mg liver and 13.39 μg/mg liver. The liver triglycerides (ob/ob mice; [9]) was 32.54 μg/mg liver and 89.34 μg/mg liver and 118.92 μg/mg liver and 123.01 μg/mg liver and 111.66 μg/mg liver and 54.15 μg/mg liver and 66.99 μg/mg liver and 69.20 μg/mg liver and 107.70 μg/mg liver and 29.81 μg/mg liver, the liver fatty acids (ob/ob mice; [10]) was 47.00 nmol/mg liver and the liver total cholesterol (ob/ob mice; [10]) was 14.47 μg/mg liver. For the same compound, the liver triglycerides (ob/ob mice; [10]) was 115.44 μg/mg liver, the liver fatty acids (ob/ob mice; [11]) was 29.78 nmol/mg liver and 49.10 nmol/mg liver and 42.91 nmol/mg liver and 39.50 nmol/mg liver and 43.38 nmol/mg liver and 48.06 nmol/mg liver and 58.06 nmol/mg liver and 46.42 nmol/mg liver and 53.47 nmol/mg liver and 59.33 nmol/mg liver and the liver total cholesterol (ob/ob mice; [11]) was 11.02 μg/mg liver and 14.95 μg/mg liver and 15.25 μg/mg liver and 11.27 μg/mg liver and 14.07 μg/mg liver and 16.04 μg/mg liver and 17.20 μg/mg liver and 13.65 μg/mg liver and 14.90 μg/mg liver and 17.30 μg/mg liver. For the same compound, the liver triglycerides (ob/ob mice; [11]) was 71.81 μg/mg liver and 110.46 μg/mg liver and 96.59 μg/mg liver and 67.76 μg/mg liver and 106.16 μg/mg liver and 153.12 μg/mg liver and 128.22 μg/mg liver and 157.22 μg/mg liver and 124.56 μg/mg liver and 138.07 μg/mg liver, the liver fatty acids (ob/ob mice; [12]) was 42.4 nmol/mg liver and the liver total cholesterol (ob/ob mice; [12]) was 13.8 μg/mg liver. For the same compound, the liver triglycerides (ob/ob mice; [12]) was 106.3 μg/mg liver, the liver fatty acids (ob/ob mice; [13]) was 46.82 nmol/mg liver and 11.67* nmol/mg liver and 43.19 nmol/mg liver and 56.93 nmol/mg liver and 36.64 nmol/mg liver and 43.21 nmol/mg liver and 40.58 nmol/mg liver and 33.97 nmol/mg liver and 38.27 nmol/mg liver and 41.87 nmol/mg liver and the liver total cholesterol (ob/ob mice; [13]) was 16.75 μg/mg liver and 7.14* μg/mg liver and 13.56 μg/mg liver and 17.52 μg/mg liver and 11.98 μg/mg liver and 14.67 μg/mg liver and 14.39 μg/mg liver and 13.53 μg/mg liver and 12.83 μg/mg liver and 9.07 μg/mg liver. For the same compound, the liver triglycerides (ob/ob mice; [13]) was 115.27 μg/mg liver and 10.45* μg/mg liver and 99.74 μg/mg liver and 160.82 μg/mg liver and 71.59 μg/mg liver and 95.60 μg/mg liver and 114.62 μg/mg liver and 92.80 μg/mg liver and 91.36 μg/mg liver and 115.09 μg/mg liver, the tolerability [2] was “generally well tolerated” and the “plasma exposure (AUC24h) in females compared with males” value [3] was over 4 fold.
